Test [1] addresses D(3) dopamine receptor (Rattus norvegicus, UniProt P19020). The experiment in a line: Displacement of [3H]-spiroperidol from rat D3 receptor expressed in HEK293 cells assessed as inhibition constant by Cheng-Prusoff equation analysis. On the technique in general: Loss of bound radioactivity is the signal in a displacement assay; it reports binding, not function.
Test [2] has as its target D(2) dopamine receptor (Homo sapiens, UniProt P14416). Description: biochemical.
Test [3] deals with D(2) dopamine receptor (Rattus norvegicus, UniProt P61169). Description: biochemical.
Description: Displacement of [3H]-spiroperidol from rat D2L receptor expressed in HEK293 cells assessed as inhibition constant by Cheng-Prusoff equation analysis

This is an account of results in ChEMBL document CHEMBL5236649 (Bioorg Med Chem, 2023).

The term Ki denotes the dissociation constant of the complex between target and ligand, obtained from inhibition or displacement. The EC50 is the midpoint of the concentration-response curve.

On to `CCCN(CC(=O)N1CCN(C(=O)CN(CCC)[C@H]2CCc3c(O)cccc3C2)CC1)[C@H]1CCc2c(O)cccc2C1`, for which the Ki in test [1] was 115 nM. In the case of `CCCN(CCc1cc(O)c(CCN(CCC)[C@H]2CCc3nc(N)sc3C2)cc1O)[C@H]1CCc2nc(N)sc2C1`, the concentration giving a half-maximal response (EC50) in test [2] was 34.4 nM. The inhibitory constant (Ki) in test [1] stood at 6.87 nM. `CCCN(CCc1ccc(CCN(CCC)[C@H]2CCc3nc(N)sc3C2)cc1)[C@H]1CCc2c(O)cccc2C1`: the results for the Ki in test [1] and in test [3] were 2.15 nM and 4.91 nM, respectively. In the same order, the values of `CCCN(CCN1CCN(CCN(CCC)[C@H]2CCc3c(O)cccc3C2)CC1)[C@H]1CCc2c(O)cccc2C1` are 3.56 nM and 12 nM. The corresponding values for `CCCN(CCc1ccc(CCN(CCC)[C@H]2CCc3c(O)cccc3C2)cc1)[C@H]1CCc2c(O)cccc2C1` are 3.86 nM and 3.88 nM.
